Reference: ChEMBL document CHEMBL3399945, “A class of sulfonamide carbonic anhydrase inhibitors with neuropathic pain modulating effects” (Bioorg Med Chem, 2015)
pKi: −log10 of the molar value.

Tests used:
[1] = target: Carbonic anhydrase 2 (Homo sapiens, UniProt P00918); test: Inhibition of human recombinant CA-2 after 15 mins by stopped-flow CO2 hydrase assay
[2] = target: Carbonic anhydrase 12 (Homo sapiens, UniProt O43570)
Description: Inhibition of human recombinant CA-12 after 15 mins by stopped-flow CO2 hydrase assay

[3] = target: Carbonic anhydrase 7 (Homo sapiens, UniProt P43166); test: Inhibition of human recombinant CA-7 after 15 mins by stopped-flow CO2 hydrase assay
Carbonic anhydrase 7, sequence (P43166 whole entry): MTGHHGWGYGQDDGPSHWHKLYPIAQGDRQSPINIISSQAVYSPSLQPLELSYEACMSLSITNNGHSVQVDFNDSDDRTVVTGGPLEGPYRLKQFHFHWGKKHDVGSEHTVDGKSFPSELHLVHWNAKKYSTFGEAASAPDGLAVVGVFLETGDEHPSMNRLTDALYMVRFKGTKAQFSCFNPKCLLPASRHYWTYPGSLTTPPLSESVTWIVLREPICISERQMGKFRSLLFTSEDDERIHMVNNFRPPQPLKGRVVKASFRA

[4] = target: Carbonic anhydrase 1 (Homo sapiens, UniProt P00915); test: Inhibition of human recombinant CA-1 after 15 mins by stopped-flow CO2 hydrase assay
Carbonic anhydrase 1, sequence (P00915 whole entry): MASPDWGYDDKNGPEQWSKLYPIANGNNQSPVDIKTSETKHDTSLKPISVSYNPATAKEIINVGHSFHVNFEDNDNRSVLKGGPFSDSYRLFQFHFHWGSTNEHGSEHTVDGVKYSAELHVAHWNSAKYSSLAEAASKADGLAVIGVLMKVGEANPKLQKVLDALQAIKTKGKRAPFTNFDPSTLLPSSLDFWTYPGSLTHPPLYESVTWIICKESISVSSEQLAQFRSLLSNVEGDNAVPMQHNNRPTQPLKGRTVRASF

[5] = target: Carbonic anhydrase 9 (Homo sapiens, UniProt Q16790)
Description: Inhibition of human recombinant CA-9 after 15 mins by stopped-flow CO2 hydrase assay

[6] = tested on: Mus musculus; test: Inhibition of oxaliplatin-induced neuropathic pain in po dosed CD-1 mouse model assessed as latency to pain-related behavior after 15 to 45 mins by cold plate test; type: functional
[7] = tested on: Mus musculus; test: Inhibition of oxaliplatin-induced neuropathic pain in po dosed CD-1 mouse model assessed as latency to pain-related behavior after 15 to 45 mins by cold plate test relative to acetazolamide; type: functional

Carbonic anhydrase 12, sequence (O43570 whole entry): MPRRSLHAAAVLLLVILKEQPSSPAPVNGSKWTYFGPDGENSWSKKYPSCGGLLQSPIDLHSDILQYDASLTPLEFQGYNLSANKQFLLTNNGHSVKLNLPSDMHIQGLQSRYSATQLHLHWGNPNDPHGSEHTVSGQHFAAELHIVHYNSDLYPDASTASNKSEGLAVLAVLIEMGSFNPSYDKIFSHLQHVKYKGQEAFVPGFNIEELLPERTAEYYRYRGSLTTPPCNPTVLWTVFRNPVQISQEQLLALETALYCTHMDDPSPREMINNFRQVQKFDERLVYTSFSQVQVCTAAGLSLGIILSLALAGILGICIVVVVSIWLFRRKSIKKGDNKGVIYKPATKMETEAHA

SMILES	pKi [1]	pKi [2]	pKi [3]	pKi [4]	pKi [5]	minimal effective dose ([6]; CD-1, po, read-out: MED) [mg/kg]	Ratio [7]	inhibition [6]
NS(=O)(=O)c1ccc(OCCN2CCOCC2)cc1	7.50	7.97	7.06	6.34	–	–	–	–
CCCCOc1ccc(S(N)(=O)=O)cc1	8.14	8.07	8.01	6.10	8.00	–	–	–
NS(=O)(=O)c1ccc(OCc2ccc(F)cc2)cc1	7.62	8.10	8.01	6.50	–	–	–	–
C=CCOc1ccc(S(N)(=O)=O)cc1	–	8.17	8.00	–	7.87	–	–	–
NS(=O)(=O)c1ccc(OCc2ccc(Br)cc2)cc1	7.56	8.19	8.05	6.61	8.46	–	–	–
NS(=O)(=O)c1ccc(OCc2ccc([N+](=O)[O-])cc2)cc1	8.85	9.14	9.05	6.84	8.89	–	–	–
NS(=O)(=O)c1ccc(OCc2c(F)c(F)c(F)c(F)c2F)cc1	7.59	9.12	8.05	6.64	9.07	–	–	–
C#CCOc1ccc(S(N)(=O)=O)cc1	7.54	8.64	8.02	5.63	–	–	–	–
CCCOc1ccc(S(N)(=O)=O)cc1	7.89	8.10	8.00	6.11	7.88	–	–	–
CC(=O)Nc1nnc(S(N)(=O)=O)s1 [ACETAZOLAMIDE]	–	–	–	–	–	30	–	–
CCOc1ccc(S(N)(=O)=O)cc1	7.64	7.87	8.02	6.61	8.09	–	3	Dose-dependent effect
NS(=O)(=O)c1ccc(OCC(c2ccccc2)c2ccccc2)cc1	7.66	7.30	7.15	5.25	7.47	–	–	–
C#CCN(CC#C)c1ccc(S(N)(=O)=O)cc1	5.75	8.31	8.07	5.19	8.05	–	–	–
NS(=O)(=O)c1nc2ccc(OCC#Cc3ccccc3)cc2s1	7.28	8.21	7.13	5.62	7.99	–	–	–
NS(=O)(=O)c1ccc(OCc2ccccc2)cc1	7.69	7.98	8.08	6.12	7.75	–	–	–
NS(=O)(=O)c1ccc(OCCc2ccccc2)cc1	8.11	8.92	8.03	6.68	8.62	–	–	–
NS(=O)(=O)c1ccc(OCC#Cc2ccccc2)cc1	7.38	7.47	7.01	5.46	7.67	–	–	–
NS(=O)(=O)c1nc2ccc(OCc3ccccc3)cc2s1	8.12	8.60	8.11	7.32	–	–	–	–
NS(=O)(=O)c1ccc2c(c1)CCN2C(=O)C(F)(F)F	8.04	8.39	8.08	7.46	8.16	–	–	–
